The values that follow come from patent US8946234B2, “Halogen-substituted compounds” (Bayer CropScience AG, priority 2008, dated 2015).

The first series in a line: physchem.
Details: not given
Type of series: physicochemical. Put shortly:
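Following EEC Directive 79/831 Annex V.A8, logP is obtained from retention on a 1.8 micron C18 column (50×4.6 mm) at 55 °C and 2.0 ml/min. Elution ran 10→95% acetonitrile (0.1% formic acid) against water (0.09% formic acid) in 4.25 min, held 1.25 min; mass detection used.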
On to `Cn1nc(C(F)(F)C(F)(F)F)c(C(F)(F)F)c1C(=O)Nc1cc(F)c(S(C)(=O)=O)c(C(=O)NC2CC2)c1` [Ik-194], for which the logP is 2.92^a). Still for that read-out and setting: for `Cn1nc(C(F)(F)F)c(C(F)(F)F)c1C(=O)Nc1ccc(Cl)c(C(=O)NC2CC2)c1` [Ik-195] the value was 2.89^a); for `Cn1nc(C(F)(F)F)c(C(F)(F)F)c1C(=O)Nc1ccc(Cl)c(C(=O)NCC=CCl)c1` [Ik-196], 3.28^a); for `O=C(NC1CC1)c1cc(NC(=O)c2[nH]nc(C(F)(F)F)c2C(F)(F)F)ccc1Cl` [Ik-197], 2.55^a). On to `CSc1c(Br)cc(NC(=O)c2c(C(F)(F)F)c(C(F)(F)C(F)(F)F)nn2C)cc1C(=O)NC1CC1` [Ik-198], for which the logP is 3.87^a). Same read-out and setting: the value for `CSc1c(Br)cc(NC(=O)c2c(C(F)(F)F)c(C(F)(F)C(F)(F)F)nn2C)cc1C(=O)NCc1ccccc1` [Ik-199] was 4.43^a).

As to `CSc1c(Br)cc(NC(=O)c2c(C(F)(F)F)c(C(F)(F)C(F)(F)F)nn2C)cc1C(=O)NCC(F)(F)F` [Ik-200], the logP is recorded as 4.22^a). On the same count and under the same terms, the value for `CSc1c(Cl)cc(NC(=O)c2c(C(F)(F)F)c(C(F)(F)C(F)(F)F)nn2C)cc1C(=O)NC1CC1` [Ik-201] was 3.80^a); that for `CSc1c(Cl)cc(NC(=O)c2c(C(F)(F)F)c(C(F)(F)C(F)(F)F)nn2C)cc1C(=O)NCc1ccccc1` [Ik-202] was 4.39^a). On the same count and under the same terms, for `CSc1c(Cl)cc(NC(=O)c2c(C(F)(F)F)c(C(F)(F)C(F)(F)F)nn2C)cc1C(=O)NCC(F)(F)F` [Ik-203] the value was 4.15^a). As for `Cn1nc(C(F)(F)C(F)(F)F)c(C(F)(F)F)c1C(=O)Nc1cc(Cl)c(I)c(C(=O)NC2CC2)c1` [Ik-204], the logP is recorded as 3.84^a).

As to `Cn1nc(C(F)(F)C(F)(F)F)c(C(F)(F)F)c1C(=O)Nc1cc(Cl)c(I)c(C(=O)NCc2ccccc2)c1` [Ik-205], the logP is listed as 4.45^a).

Consider `Cn1nc(C(F)(F)C(F)(F)F)c(C(F)(F)F)c1C(=O)Nc1cc(Cl)c(I)c(C(=O)NCC(F)(F)F)c1` [Ik-206], for which the logP is on record as 4.18^a). The same measure, in the same setting: the value for `Cn1nc(C(F)(F)C(F)(F)F)c(C(F)(F)F)c1C(=O)Nc1cc(Br)c(Br)c(C(=O)NC2CC2)c1` [Ik-207] was 3.84^a). Regarding `Cn1nc(C(F)(F)C(F)(F)F)c(C(F)(F)F)c1C(=O)Nc1cc(Br)c(Br)c(C(=O)NCc2ccccc2)c1` [Ik-208], the logP was 4.42^a). In the case of `Cn1nc(C(F)(F)C(F)(F)F)c(C(F)(F)F)c1C(=O)Nc1cc(Br)c(Br)c(C(=O)NCC(F)(F)F)c1` [Ik-209], the logP is on record as 4.18^a).

As for `Cn1nc(C(F)(F)C(F)(F)F)c(C(F)(F)F)c1C(=O)Nc1cc(Br)c(I)c(C(=O)NC2CC2)c1` [Ik-210], the logP was 3.92^a). The same measure, in the same setting: for `Cn1nc(C(F)(F)C(F)(F)F)c(C(F)(F)F)c1C(=O)Nc1cc(Br)c(I)c(C(=O)NCc2ccccc2)c1` [Ik-211] the value was 4.49^a); for `Cn1nc(C(F)(F)C(F)(F)F)c(C(F)(F)F)c1C(=O)Nc1cc(Br)c(I)c(C(=O)NCC(F)(F)F)c1` [Ik-212], 4.15^a). The same measure, in the same setting: for `Cn1nc(C(F)(F)C(F)(F)F)c(C(F)(F)F)c1C(=O)Nc1cc(Cl)c(Br)c(C(=O)NC2CC2)c1` [Ik-213] the value was 3.81^a); for `Cn1nc(C(F)(F)C(F)(F)F)c(C(F)(F)F)c1C(=O)Nc1cc(Cl)c(Br)c(C(=O)NCc2ccccc2)c1` [Ik-214], 4.42^a).

Consider `Cn1nc(C(F)(F)C(F)(F)F)c(C(F)(F)F)c1C(=O)Nc1cc(Cl)c(Br)c(C(=O)NCC(F)(F)F)c1` [Ik-215], for which the logP was 4.14^a).

On to `CCn1nc(C(F)(F)C(F)(F)F)c(C(F)(F)F)c1C(=O)Nc1ccc(Cl)c(C(=O)NCC(F)(F)F)c1` [Ik-216], for which the logP was 3.93^a).

`CCn1nc(C(F)(F)C(F)(F)F)c(C(F)(F)F)c1C(=O)Nc1ccc(Cl)c(C(=O)NC2CC2)c1` [Ik-217]: the logP is reported as 3.63^a). Still for that read-out and setting: for `CC(C)n1nc(C(F)(F)C(F)(F)F)c(C(F)(F)F)c1C(=O)Nc1ccc(Cl)c(C(=O)NC2CC2)c1` [Ik-218] the value was 4.02^a); for `COCn1nc(C(F)(F)C(F)(F)F)c(C(F)(F)F)c1C(=O)Nc1ccc(Cl)c(C(=O)NC2CC2)c1` [Ik-219], 3.50^a). Take `Cn1nc(C(F)(F)C(F)(F)F)c(C(F)(F)F)c1C(=O)Nc1cc(Br)cc(C(=O)NC2CC2)c1` [Ik-221]: the logP is reported as 3.74^a). As for `Cn1nc(C(F)(F)C(F)(F)F)c(C(F)(F)F)c1C(=O)Nc1cc(Br)cc(C(=O)NCc2ccccc2)c1` [Ik-222], the logP is 4.35^a). Consider `Cn1nc(C(F)(F)C(F)(F)F)c(C(F)(F)F)c1C(=O)Nc1cc(Br)cc(C(=O)NCC(F)(F)F)c1` [Ik-223], for which the logP is 4.09^a). On the same count and under the same terms, for `Cn1nc(C(F)(F)C(F)(F)F)c(C(F)(F)F)c1C(=O)Nc1cc(F)c(I)c(C(=O)NCC=CCl)c1` [Ik-224] the value was 3.99^a); for `Cn1nc(C(F)(F)C(F)(F)F)c(C(F)(F)F)c1C(=O)Nc1cc(F)c(I)c(C(=O)NC2CC2)c1` [Ik-225], 3.63^a); for `Cn1nc(C(F)(F)C(F)(F)F)c(C(F)(F)F)c1C(=O)Nc1cc(F)c(I)c(C(=O)NCC(F)(F)F)c1` [Ik-226], 3.95^a).

In the case of `Cn1nc(C(F)(F)C(F)(F)F)c(C(F)(F)F)c1C(=O)Nc1cc(F)c(I)c(C(=O)NCc2ccccc2)c1` [Ik-227], the logP is reported as 4.20^a). The same measure, in the same setting: for `Cn1nc(C(F)(F)C(F)(F)F)c(C(F)(F)F)c1C(=O)Nc1cc(F)c(Br)c(C(=O)NCC(F)(F)F)c1` [Ik-228] the value was 3.88^a); for `Cn1nc(C(F)(F)C(F)(F)F)c(C(F)(F)F)c1C(=O)Nc1cc(F)c(Br)c(C(=O)NCc2ccccc2)c1` [Ik-229], 4.14^a); for `Cn1nc(C(F)F)c(C(F)(F)F)c1C(=O)Nc1ccc(Cl)c(C(=O)NC2CC2)c1` [Ik-231], 2.46^a).

With `Cn1nc(C(F)F)c(C(F)(F)F)c1C(=O)Nc1ccc(Cl)c(C(=O)NCC=CCl)c1` [Ik-232], the logP was 2.92^a).

Regarding `Cn1nc(OC(F)F)cc1C(=O)Nc1ccc(Cl)c(C(=O)NC2CC2)c1` [Ik-234], the logP is given as 2.17^a). Regarding `Cn1nc(C2CC2)c(Br)c1C(=O)Nc1ccc(Cl)c(C(=O)NC2CC2)c1` [Ik-235], the logP is recorded as 2.60^a).

On to `Cn1nc(OC(F)F)c(Br)c1C(=O)Nc1ccc(Cl)c(C(=O)NCC(F)(F)F)c1` [Ik-236], for which the logP is 2.88^a). The same measure, in the same setting: for `Cn1nc(OC(F)F)c(Br)c1C(=O)Nc1ccc(Cl)c(C(=O)NC2CC2)c1` [Ik-237] the value was 2.51^a); for `Cn1nc(OC(F)F)c(Cl)c1C(=O)Nc1ccc(Cl)c(C(=O)NC2CC2)c1` [Ik-238], 2.52^a). As to `Cn1nc(OC(F)F)c(Cl)c1C(=O)Nc1ccc(Cl)c(C(=O)NCC(F)(F)F)c1` [Ik-239], the logP is listed as 2.89^a). `Cn1nc(OC(F)F)c(I)c1C(=O)Nc1ccc(Cl)c(C(=O)NC2CC2)c1` [Ik-240]: the logP is listed as 2.54^a).

The series is the same for the next values; noted with them: HPLC on C18 phase inversion column, method a).
With `COCn1nc(C(F)(F)C(F)(F)F)c(C(F)(F)F)c1C(=O)Nc1ccc(Cl)c(C(=O)NCC(F)(F)F)c1` [Ik-220], the logP is given as 3.82^a).

The same series, now with this note: HPLC phase inversion (reversed-phase) C18 column, HPLC method a), eluent acetonitrile/water with formic acid; read-out: logP.
For `Cn1nc(C(F)C2CC2)c(C(F)(F)F)c1C(=O)Nc1ccc(Cl)c(C(=O)NC2CC2)c1` (stereo not shown) [Ik-233, N-[4-Chloro-3-(cyclopropylcarbamoyl)phenyl]-3-[cyclopropyl(fluoro)methyl]-1-methyl-4-(trifluoromethyl)-1H-pyrazole-5-carboxamide], the chromatographic logP was found to be 2.76.
